#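 Briefly, cells in 96-well plates were exposed to five compound concentrations for 48 h, and endpoints were estimated by linear interpolation. Abbreviation: GI50, concentration required for 50% inhibition of growth.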 The source made the active and inactive calls. Rule as the data show it: active = GI50 up to about 1.1 µM and inactive = higher.
# Columns and labels:
# Assay in all cases: DTP human tumour cell line panel, 48 h
# [1] = test system: UO-31
# [2] = test system: SNB-78
# [3] = test system: EKVX
# [4] = test system: DMS-114
# [5] = test system: RPMI-8226
# [6] = test system: DMS-273
# [7] = test system: M19-MEL
# [8] = test system: CAKI-1
# [9] = test system: LXFL 529
# [10] = test system: HOP-18
# [11] = test system: XF498
# [12] = test system: KM-20L2
# [13] = test system: SR
# [14] = test system: DLD-1
# [15] = test system: HCC 2998
# [16] = test system: OVCAR-5
# [17] = test system: HOP-62
# [18] = test system: PC-3
# [19] = test system: MDA-N
# [20] = test system: NCI/ADR-RES
Structure (SMILES),GI50 [1],GI50 [2],GI50 [3],GI50 [4],GI50 [5],GI50 [6],GI50 [7],GI50 [8],GI50 [9],GI50 [10],GI50 [11],GI50 [12],GI50 [13],GI50 [14],GI50 [15],GI50 [16],GI50 [17],GI50 [18],GI50 [19],GI50 [20]
COc1cc2c(cc1OC)C(Cl)C(c1ccc(Cl)c(Cl)c1)=C2Cl (stereo unspecified),10.6 µM (inactive),5.56 µM (inactive),18 µM (inactive),3.42 µM (inactive),3.14 µM (inactive),3.86 µM (inactive),9.02 µM (inactive),11.2 µM (inactive),5.15 µM (inactive),12.9 µM (inactive),< 0.01 µM (active),8.71 µM (inactive),,,,,,,,
COc1ccc(C2SCC(=O)N2NC(=O)c2ccncc2)cc1F (stereo unspecified),,> 100 µM (inactive),,> 100 µM (inactive),> 100 µM (inactive),> 100 µM (inactive),,> 100 µM (inactive),> 100 µM (inactive),7.29 µM (inactive),> 100 µM (inactive),> 100 µM (inactive),> 100 µM (inactive),> 100 µM (inactive),> 100 µM (inactive),> 100 µM (inactive),> 100 µM (inactive),,,
Nc1nc(SCc2ccc([N+](=O)[O-])cc2)nc2c1ncn2C1OC(COP(=O)(O)O)C(O)C1O (stereo unspecified),,> 100 µM (inactive),> 100 µM (inactive),> 100 µM (inactive),,> 100 µM (inactive),,,> 100 µM (inactive),,> 100 µM (inactive),> 100 µM (inactive),> 100 µM (inactive),> 100 µM (inactive),> 100 µM (inactive),> 100 µM (inactive),> 100 µM (inactive),,,
O=C(OC1C=C=CS(=O)(=O)CC#C/C=C\1)c1cnc2ccccc2n1 (stereo unspecified),76.6 µM (inactive),,97.3 µM (inactive),,57 µM (inactive),,,> 100 µM (inactive),,,,,68.9 µM (inactive),,> 100 µM (inactive),> 100 µM (inactive),> 100 µM (inactive),> 100 µM (inactive),52 µM (inactive),> 100 µM (inactive)
COc1cc(/C=N\O)cc(/C=N/O)c1O,5.94 µM (inactive),,60.3 µM (inactive),,15.5 µM (inactive),,,28.6 µM (inactive),,,,,26.3 µM (inactive),,,44.3 µM (inactive),21.9 µM (inactive),28.9 µM (inactive),39.9 µM (inactive),58.1 µM (inactive)
NC(=O)N/C=C1\C(=O)Oc2ccccc2C1=O,31.9 µM (inactive),43.2 µM (inactive),> 100 µM (inactive),> 100 µM (inactive),> 100 µM (inactive),> 100 µM (inactive),,,> 100 µM (inactive),,,86.5 µM (inactive),,> 100 µM (inactive),> 100 µM (inactive),35.3 µM (inactive),> 100 µM (inactive),,,
O=C(NN1C(=O)C(Cl)C1c1cccc(O)c1)c1ccccc1O (stereo unspecified),> 100 µM (inactive),> 100 µM (inactive),,> 100 µM (inactive),,> 100 µM (inactive),> 100 µM (inactive),,> 100 µM (inactive),24.8 µM (inactive),> 100 µM (inactive),,,> 100 µM (inactive),> 100 µM (inactive),,,,,
